In ChEMBL document CHEMBL5034019, “Discovery of the Next-Generation Pan-TRK Kinase Inhibitors for the Treatment of Cancer” (J Med Chem, 2021):
pIC50: −log10 of the molar value. Values after ≈ are worked out from the molar mass of the structure shown.

Legend:
[1] = system: BaF3; experiment: Cytotoxicity against mouse BaF3 cells transfected with TrKA G595R mutant assessed as reduction in cell viability by MTT assay; type: functional, cell-based
[2] = biological target: ALK tyrosine kinase receptor (Homo sapiens, UniProt Q9UM73)
Sequence of ALK tyrosine kinase receptor (Q9UM73 whole entry): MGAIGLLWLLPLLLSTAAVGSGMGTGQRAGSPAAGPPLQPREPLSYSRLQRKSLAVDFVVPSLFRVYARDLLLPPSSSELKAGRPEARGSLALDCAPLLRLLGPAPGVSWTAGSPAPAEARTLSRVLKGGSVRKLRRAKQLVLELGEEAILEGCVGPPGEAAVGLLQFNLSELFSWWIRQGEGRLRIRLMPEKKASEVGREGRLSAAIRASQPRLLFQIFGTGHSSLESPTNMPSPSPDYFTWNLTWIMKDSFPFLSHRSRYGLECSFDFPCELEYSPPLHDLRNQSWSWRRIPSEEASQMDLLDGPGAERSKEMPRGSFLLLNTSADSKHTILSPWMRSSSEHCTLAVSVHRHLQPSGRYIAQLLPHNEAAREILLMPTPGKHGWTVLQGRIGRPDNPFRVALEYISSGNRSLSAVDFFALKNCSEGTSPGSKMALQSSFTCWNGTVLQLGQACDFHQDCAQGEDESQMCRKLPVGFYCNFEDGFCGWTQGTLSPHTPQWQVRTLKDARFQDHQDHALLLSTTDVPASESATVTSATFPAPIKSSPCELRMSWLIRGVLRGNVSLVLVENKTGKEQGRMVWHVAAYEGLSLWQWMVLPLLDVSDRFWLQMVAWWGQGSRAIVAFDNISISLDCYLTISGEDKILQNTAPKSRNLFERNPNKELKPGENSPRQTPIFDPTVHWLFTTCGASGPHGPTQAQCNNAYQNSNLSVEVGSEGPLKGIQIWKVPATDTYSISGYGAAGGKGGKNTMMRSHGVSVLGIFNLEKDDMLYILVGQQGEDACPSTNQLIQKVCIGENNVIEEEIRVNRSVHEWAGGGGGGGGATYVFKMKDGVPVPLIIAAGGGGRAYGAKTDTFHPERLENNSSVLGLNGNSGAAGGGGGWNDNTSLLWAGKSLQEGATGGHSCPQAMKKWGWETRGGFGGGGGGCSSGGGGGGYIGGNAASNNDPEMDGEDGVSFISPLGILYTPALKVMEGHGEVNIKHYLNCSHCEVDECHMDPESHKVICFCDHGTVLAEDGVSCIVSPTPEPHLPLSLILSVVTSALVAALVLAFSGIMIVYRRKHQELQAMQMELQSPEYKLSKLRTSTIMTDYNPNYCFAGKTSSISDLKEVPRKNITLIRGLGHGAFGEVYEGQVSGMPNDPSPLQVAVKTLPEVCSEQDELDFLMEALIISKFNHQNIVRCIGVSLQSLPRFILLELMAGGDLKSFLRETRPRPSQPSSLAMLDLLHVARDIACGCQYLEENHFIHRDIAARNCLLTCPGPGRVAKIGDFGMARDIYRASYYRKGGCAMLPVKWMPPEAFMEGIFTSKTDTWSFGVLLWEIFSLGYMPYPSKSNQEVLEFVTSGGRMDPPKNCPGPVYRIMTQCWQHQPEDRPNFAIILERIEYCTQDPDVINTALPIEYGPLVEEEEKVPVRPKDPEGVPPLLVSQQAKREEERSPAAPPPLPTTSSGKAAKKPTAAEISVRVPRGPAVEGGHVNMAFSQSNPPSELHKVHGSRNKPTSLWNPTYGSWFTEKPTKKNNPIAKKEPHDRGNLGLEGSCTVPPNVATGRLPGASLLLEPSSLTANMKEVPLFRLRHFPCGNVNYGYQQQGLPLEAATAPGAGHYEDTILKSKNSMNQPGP
Description: Inhibition of ALK (unknown origin) incubated for 120 mins in presence of 33P-ATP

[3] = Metabolic stability in mouse liver microsomes assessed as intrinsic clearance at 1 uM by LC-MS/MS analysis; type: ADME, Microsome; details: read-out: CLH
[4] = Protein binding in mouse plasma assessed as unbound fraction by LC-MS/MS based equilibrium dialysis method; type: ADME, cell-free
[5] = system: BaF3; experiment: Cytotoxicity against mouse BaF3 cells transfected with TrKA G623R mutant assessed as reduction in cell viability by MTT assay; type: functional, cell-based
[6] = Protein binding in human plasma assessed as unbound fraction by LC-MS/MS based equilibrium dialysis method; type: ADME, cell-free
[7] = Metabolic stability in dog liver microsomes assessed as intrinsic clearance at 1 uM by LC-MS/MS analysis; type: ADME, Canis lupus familiaris, Microsome; details: read-out: CLH
[8] = system: BaF3; experiment: Cytotoxicity against mouse BaF3 cells transfected with SLC34A2-Ros1 assessed as reduction in cell viability by MTT assay; type: functional, cell-based
[9] = Apparent permeability across apical to basolateral side in human Caco-2 cells incubated for 2 hrs by LC-MS/MS analysis; type: ADME, cell-based
[10] = Metabolic stability in human liver microsomes assessed as intrinsic clearance at 1 uM by LC-MS/MS analysis; type: ADME, Microsome; details: read-out: CLH
[11] = biological target: High affinity nerve growth factor receptor (Homo sapiens, UniProt P04629)
Sequence of High affinity nerve growth factor receptor (Homo sapiens, UniProt P04629) (P04629 whole entry): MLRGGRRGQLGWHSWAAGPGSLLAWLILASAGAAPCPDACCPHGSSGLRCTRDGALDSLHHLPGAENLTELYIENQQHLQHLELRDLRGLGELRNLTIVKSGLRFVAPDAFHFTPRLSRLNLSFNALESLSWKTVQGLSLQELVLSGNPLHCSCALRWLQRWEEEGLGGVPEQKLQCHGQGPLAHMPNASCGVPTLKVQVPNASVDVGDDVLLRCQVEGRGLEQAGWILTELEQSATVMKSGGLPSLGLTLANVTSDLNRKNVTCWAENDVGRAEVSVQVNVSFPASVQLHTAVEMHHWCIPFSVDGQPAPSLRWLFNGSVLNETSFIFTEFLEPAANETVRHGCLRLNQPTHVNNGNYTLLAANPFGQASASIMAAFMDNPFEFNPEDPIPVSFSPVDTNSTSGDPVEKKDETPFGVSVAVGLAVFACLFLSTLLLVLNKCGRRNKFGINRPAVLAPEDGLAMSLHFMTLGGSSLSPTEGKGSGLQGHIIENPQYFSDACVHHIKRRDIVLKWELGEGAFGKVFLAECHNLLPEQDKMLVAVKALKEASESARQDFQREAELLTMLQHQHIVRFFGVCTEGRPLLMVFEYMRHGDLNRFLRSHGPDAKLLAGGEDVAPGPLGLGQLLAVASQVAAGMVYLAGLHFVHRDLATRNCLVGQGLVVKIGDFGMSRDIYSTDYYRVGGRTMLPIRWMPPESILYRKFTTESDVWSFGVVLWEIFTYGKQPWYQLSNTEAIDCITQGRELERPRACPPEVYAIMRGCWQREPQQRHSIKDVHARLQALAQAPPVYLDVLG
Description: Inhibition of TrKA (unknown origin) incubated for 120 mins in presence of 33P-ATP

[12] = Protein binding in dog plasma assessed as unbound fraction by LC-MS/MS based equilibrium dialysis method; type: ADME, cell-free, Canis lupus familiaris
[13] = biological target: High affinity nerve growth factor receptor (Homo sapiens, UniProt P04629, G595R)
[14] = Protein binding in rat plasma assessed as unbound fraction by LC-MS/MS based equilibrium dialysis method; type: ADME, cell-free
[15] = Metabolic stability in rat liver microsomes assessed as intrinsic clearance at 1 uM by LC-MS/MS analysis; type: ADME, Microsome; details: read-out: CLH
[16] = biological target: Voltage-gated inwardly rectifying potassium channel KCNH2 (Homo sapiens, UniProt Q12809); experiment: Inhibition of human ERG
Sequence of Voltage-gated inwardly rectifying potassium channel KCNH2 (Q12809 whole entry): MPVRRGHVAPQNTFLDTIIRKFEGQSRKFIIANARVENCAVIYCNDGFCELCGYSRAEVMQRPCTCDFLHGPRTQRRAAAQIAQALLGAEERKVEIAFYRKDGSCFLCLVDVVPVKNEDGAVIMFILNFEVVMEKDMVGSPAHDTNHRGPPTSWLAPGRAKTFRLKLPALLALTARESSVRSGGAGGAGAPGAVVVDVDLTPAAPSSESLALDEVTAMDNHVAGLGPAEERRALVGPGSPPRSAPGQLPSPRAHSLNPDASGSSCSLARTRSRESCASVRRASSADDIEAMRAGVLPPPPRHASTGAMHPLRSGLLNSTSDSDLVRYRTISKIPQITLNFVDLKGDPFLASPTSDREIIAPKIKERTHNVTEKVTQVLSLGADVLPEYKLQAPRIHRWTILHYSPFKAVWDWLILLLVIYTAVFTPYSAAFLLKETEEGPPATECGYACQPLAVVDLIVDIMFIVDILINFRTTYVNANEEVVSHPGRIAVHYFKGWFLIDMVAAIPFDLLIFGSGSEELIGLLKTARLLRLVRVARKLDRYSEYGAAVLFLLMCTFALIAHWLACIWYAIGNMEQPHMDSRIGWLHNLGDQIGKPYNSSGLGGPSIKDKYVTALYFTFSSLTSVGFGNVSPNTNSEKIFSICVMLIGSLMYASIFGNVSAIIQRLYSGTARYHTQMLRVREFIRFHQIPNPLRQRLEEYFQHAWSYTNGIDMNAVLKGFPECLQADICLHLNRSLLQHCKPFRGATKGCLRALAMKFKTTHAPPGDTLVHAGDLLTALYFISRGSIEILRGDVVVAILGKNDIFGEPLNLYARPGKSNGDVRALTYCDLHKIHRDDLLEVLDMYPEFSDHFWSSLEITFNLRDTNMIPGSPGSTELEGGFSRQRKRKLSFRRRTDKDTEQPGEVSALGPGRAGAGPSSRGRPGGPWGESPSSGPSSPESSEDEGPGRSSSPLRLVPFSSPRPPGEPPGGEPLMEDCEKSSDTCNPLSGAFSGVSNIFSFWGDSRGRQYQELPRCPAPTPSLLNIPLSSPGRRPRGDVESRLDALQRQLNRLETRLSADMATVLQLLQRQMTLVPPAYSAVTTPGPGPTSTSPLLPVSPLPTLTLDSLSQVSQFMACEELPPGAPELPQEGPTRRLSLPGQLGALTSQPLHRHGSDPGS

[17] = Oral bioavailability in Sprague-Dawley rat at 10 mg/kg measured up to 24 hrs by LC/MS/MS analysis; type: ADME, organism-based; details: in vivo
[18] = biological target: Cytochrome P450 3A4 (Homo sapiens, UniProt P08684); experiment: Inhibition of CYP3A4 in human pooled liver microsomes using midazolam and testosterone as substrate in presence of NADPH by LC-MS/MS analysis; type: ADME
Sequence of Cytochrome P450 3A4 (P08684 whole entry): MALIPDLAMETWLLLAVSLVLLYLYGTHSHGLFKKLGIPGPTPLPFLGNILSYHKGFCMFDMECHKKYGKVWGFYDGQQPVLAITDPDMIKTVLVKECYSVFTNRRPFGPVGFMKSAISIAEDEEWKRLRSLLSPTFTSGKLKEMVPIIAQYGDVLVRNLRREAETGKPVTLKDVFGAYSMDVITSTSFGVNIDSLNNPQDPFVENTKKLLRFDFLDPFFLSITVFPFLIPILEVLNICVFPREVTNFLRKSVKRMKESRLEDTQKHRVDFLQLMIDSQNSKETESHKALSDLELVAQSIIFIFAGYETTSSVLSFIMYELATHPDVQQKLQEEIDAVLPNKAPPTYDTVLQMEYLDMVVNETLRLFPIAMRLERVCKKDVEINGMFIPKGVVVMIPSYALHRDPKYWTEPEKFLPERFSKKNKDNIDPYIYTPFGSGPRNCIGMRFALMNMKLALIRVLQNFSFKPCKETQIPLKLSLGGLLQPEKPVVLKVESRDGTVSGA

[19] = biological target: Cytochrome P450 2D6 (Homo sapiens, UniProt P10635); experiment: Inhibition of CYP2D6 in human pooled liver microsomes using dextromethorphan as substrate in presence of NADPH by LC-MS/MS analysis; type: ADME
[20] = Kinetic solubility of the compound; type: physicochemical; details: read-out: Kinetic_solubility
[21] = biological target: Cytochrome P450 2C9 (Homo sapiens, UniProt P11712); experiment: Inhibition of CYP2C9 in human pooled liver microsomes using diclofenac as substrate in presence of NADPH by LC-MS/MS analysis; type: ADME
Sequence of Cytochrome P450 2C9 (P11712 whole entry): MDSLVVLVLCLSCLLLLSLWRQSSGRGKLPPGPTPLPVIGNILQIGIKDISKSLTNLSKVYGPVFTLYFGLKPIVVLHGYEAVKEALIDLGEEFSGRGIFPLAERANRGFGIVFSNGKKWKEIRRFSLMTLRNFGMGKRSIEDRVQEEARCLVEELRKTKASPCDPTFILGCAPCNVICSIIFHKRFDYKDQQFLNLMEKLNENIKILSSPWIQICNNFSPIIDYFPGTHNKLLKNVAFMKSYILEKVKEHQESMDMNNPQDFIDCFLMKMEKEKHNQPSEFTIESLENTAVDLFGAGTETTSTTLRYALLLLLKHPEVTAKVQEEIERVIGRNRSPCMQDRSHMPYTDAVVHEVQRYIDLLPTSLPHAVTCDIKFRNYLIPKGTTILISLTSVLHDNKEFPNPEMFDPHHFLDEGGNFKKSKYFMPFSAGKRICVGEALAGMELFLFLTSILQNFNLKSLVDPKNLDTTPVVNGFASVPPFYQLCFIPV

[22] = Half life in Sprague-Dawley rat at 3 mg/kg measured up to 24 hrs by LC-MS/MS analysis; type: ADME, organism-based; details: in vivo
[23] = Tmax in Sprague-Dawley rat at 10 mg/kg, po measured up to 24 hrs by LC-MS analysis; type: ADME, organism-based; details: in vivo
[24] = AUC (0 to t) in Sprague-Dawley rat at 3 mg/kg measured up to 24 hrs by LC-MS/MS analysis; type: ADME, organism-based; set-up: dose 3 mg/kg, time <=24; details: in vivo
[25] = Volume of distribution in Sprague-Dawley rat at 3 mg/kg measured up to 24 hrs by LC-MS/MS analysis; type: ADME, organism-based; details: in vivo
[26] = Cmax in Sprague-Dawley rat at 10 mg/kg, po measured up to 24 hrs by LC-MS/MS analysis; type: ADME, organism-based; set-up: route oral, dose 10 mg/kg, time <=24; details: in vivo
[27] = AUC (0 to t) in Sprague-Dawley rat at 10 mg/kg, po measured up to 24 hrs by LC-MS/MS analysis; type: ADME, organism-based; set-up: route oral, dose 10 mg/kg, time <=24; details: in vivo
[28] = C0 in Sprague-Dawley rat at 3 mg/kg measured up to 24 hrs by LC/MS/MS analysis; type: ADME, organism-based; details: in vivo
[29] = system: BaF3; experiment: cells; details: Mus musculus
Description: Cytotoxicity against mouse BaF3 cells transfected with TrKA assessed as reduction in cell viability by MTT assay

[30] = Clearance in Sprague-Dawley rat at 3 mg/kg measured up to 24 hrs by LC/MS/MS analysis; type: ADME, organism-based; details: in vivo
[31] = biological target: Cytochrome P450 2C19 (Homo sapiens, UniProt P33261); experiment: Inhibition of CYP2C19 in human pooled liver microsomes using S-mephenytoin as substrate in presence of NADPH by LC-MS/MS analysis; type: ADME
Sequence of Cytochrome P450 2C19 (P33261 whole entry): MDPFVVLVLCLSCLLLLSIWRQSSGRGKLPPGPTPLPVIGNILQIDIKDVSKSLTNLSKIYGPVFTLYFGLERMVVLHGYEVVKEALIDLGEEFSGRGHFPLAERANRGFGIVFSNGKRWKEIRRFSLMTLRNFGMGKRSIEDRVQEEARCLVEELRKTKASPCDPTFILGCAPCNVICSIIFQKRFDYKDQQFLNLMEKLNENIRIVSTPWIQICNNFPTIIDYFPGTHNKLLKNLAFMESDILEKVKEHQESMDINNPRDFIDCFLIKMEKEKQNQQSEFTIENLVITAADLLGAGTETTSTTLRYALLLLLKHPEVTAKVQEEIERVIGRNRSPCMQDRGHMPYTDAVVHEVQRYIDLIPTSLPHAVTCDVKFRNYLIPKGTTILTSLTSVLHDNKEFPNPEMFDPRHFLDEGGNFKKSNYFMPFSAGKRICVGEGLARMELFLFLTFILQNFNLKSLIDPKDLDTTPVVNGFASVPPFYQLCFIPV

[32] = biological target: T1, Cytochrome P450 1A2 (Homo sapiens, UniProt P05177); experiment: Inhibition of CYP1A2 in human pooled liver microsomes using phenacetin as substrate in presence of NADPH by LC-MS/MS analysis; type: ADME
T1 sequence (P05177 whole entry): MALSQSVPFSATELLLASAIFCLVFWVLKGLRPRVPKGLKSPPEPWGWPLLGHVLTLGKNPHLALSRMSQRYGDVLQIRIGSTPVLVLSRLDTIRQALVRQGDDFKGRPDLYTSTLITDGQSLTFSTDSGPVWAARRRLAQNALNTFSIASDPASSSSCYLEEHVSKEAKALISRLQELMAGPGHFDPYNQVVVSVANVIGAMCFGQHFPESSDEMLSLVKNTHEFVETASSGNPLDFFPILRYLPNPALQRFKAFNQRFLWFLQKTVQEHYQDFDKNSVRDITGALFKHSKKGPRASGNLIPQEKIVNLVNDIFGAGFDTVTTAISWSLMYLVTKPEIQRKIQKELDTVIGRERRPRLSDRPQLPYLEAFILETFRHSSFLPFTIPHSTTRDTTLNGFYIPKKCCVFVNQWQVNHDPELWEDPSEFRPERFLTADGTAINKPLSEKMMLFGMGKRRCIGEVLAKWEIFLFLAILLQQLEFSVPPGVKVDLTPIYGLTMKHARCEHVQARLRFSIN

[33] = system: BaF3; experiment: Cytotoxicity against mouse BaF3 cells transfected with TrKA F589L mutant assessed as reduction in cell viability by MTT assay; type: functional, cell-based

Row | CLint scaled at 1 µM [3] | fraction unbound [4] | fraction unbound [6] | CLint scaled at 1 µM [7] | Papp A→B at 2 h [9] | CLint scaled at 1 µM [10] | pIC50 [11] | fraction unbound [12] | fraction unbound [14] | CLint scaled at 1 µM [15] | SMILES | further results
1 | 1010 mL/min/kg | 0.02 | 0.02 | 268 mL/min/kg | 16.3 ×10⁻⁶ cm/s | 242 mL/min/kg | 8.49 | 0.03 | 0.02 | 980 mL/min/kg | O=C1NC2(CC2)COc2ncc(F)cc2[C@H]2CCCCN2c2ccn3ncc1c3n2 | pIC50 [1]: 9.40; pIC50 [2]: 7.73; pIC50 [5]: 8.24; pIC50 [8]: 7.90; pIC50 [13]: 8.68
2 |  |  |  |  |  |  | < 6.00 |  |  |  | C[C@H]1CNS(=O)(=O)c2cnn3ccc(nc23)N[C@H](C)c2cc(F)ccc2O1 | 
3 | 342 mL/min/kg | 0.28 | 0.36 | 74 mL/min/kg | 3.9 ×10⁻⁶ cm/s | 43 mL/min/kg |  | 0.34 | 0.3 | 29 mL/min/kg | O=C1NC2(CC2)COc2ncc(F)cc2[C@H]2CNCCN2c2ccn3ncc1c3n2 | pIC50 [16]: 5.17
4 | 982 mL/min/kg | 0.05 | 0.05 | 21 mL/min/kg | 0.9 ×10⁻⁶ cm/s | 29 mL/min/kg |  | 0.09 | 0.06 | 49 mL/min/kg | C[C@H]1CNC(=O)c2cnn3ccc(nc23)N[C@H](C)c2cc(F)ccc2O1 [REPOTRECTINIB] | pIC50 [1]: 8.10; bioavailability [17]: 119%; pIC50 [18]: < 4.30; pIC50 [19]: 4.55; solubility kinetic [20]: 65.8 µM (≈ 23.4 µg/mL); pIC50 [21]: 5.19; pIC50 [5]: 8.32; pIC50 [8]: 8.66; half-life [22]: 2.8 h; Tmax [23]: 0.8 h; AUC(0-t) at 24 h [24]: 15 µM·h; Vd [25]: 1.1 L/kg; Cmax [26]: 16.9 µM; AUC(0-t) at 24 h [27]: 59.7 µM·h; C0 [28]: 12.87 µM; pIC50 [29]: 8.74; clearance [30]: 9.4 mL/min/kg; pIC50 [31]: 4.91; pIC50 [32]: < 4.30; pIC50 [33]: 9.15
5 |  |  |  |  |  |  | 6.07 |  |  |  | C[C@H]1NC(=O)c2cnn3ccc(nc23)N[C@H](C)c2cc(F)ccc2NC1=O | 
6 |  |  |  |  |  |  | < 6.00 |  |  |  | C[C@H]1Nc2ccn3ncc(c3n2)C(=O)N2CCC(CC2)c2ccc(F)cc21 | 
7 |  |  |  |  |  |  | 7.17 |  |  |  | C[C@@H]1COc2ncc(F)cc2C23CC2CCN3c2ccn3ncc(c3n2)C(=O)N1 (some centres undefined) | 
8 |  |  |  |  |  |  | < 6.00 |  |  |  | C[C@H]1Nc2ccn3ncc(c3n2)C(=O)N2CCN(CC2)c2ccc(F)cc21 | 
